Experimental data from patent US20250154172A1, “PRMT5 INHIBITORS AND USES THEREOF” (Gilead Sciences, Inc., priority 2023, published 2025).

Assays:
[1] = system: HCT116 MTAP-deleted cell lines; experiment: Cell viability assay for HCT116 isogenic pair (CellTitre-Glo, 7 days); type: cell-based; conditions: Homo sapiens, HCT-116, 168 h, 7 days of treatment, cell line not given
Summary of the method: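 HCT116 WT or MTAP-deleted cells, 100 per well, seeded onto pre-spotted PRMT5 inhibitor dose series in RPMI 1640/10% heat-inactivated FBS and grown 7 days at 37° C, 5% CO2. CellTiter-Glo luminescence then read; CC50 (nM) from 4-parameter logistic fit.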

[2] = Hepatocyte stability assay; type: in vitro ADME; conditions: Rat hepatocytes; 1 μM substrate
Protocol: BioreclamationIVT (Baltimore, MD) provided the cryopreserved hepatocytes, hepatocyte thawing (HT) medium, and Krebs-Henseleit buffer (KHB) medium. The stock solution concentration was 1 M in DMSO and was then diluted further in acetonitrile/water (1:1 v/v). All other chemicals were purchased from Sigma-Aldrich (St. Louis, MO) or Thermo Fisher Scientific (Waltham, MA).
The quench solution used to stop reactions in the hepatocyte incubations was comprised of 100% (v/v) acetonitrile. Internal Standard/Quench (IS/Q) solution used to stop reactions with the positive control also contained 200 nM Labetalol.
Metabolic Stability in Cryopreserved Hepatocytes: Test compounds, or the positive control metabolic substrate, was incubated in suspensions of cryopreserved hepatocytes at a final concentration of 1 μM. Vials containing cryopreserved hepatocytes were removed from liquid nitrogen and immediately immersed in a 37° C. water bath. The vials were swirled gently until the contents had thawed. […] The viabilities of all cell preparations were >85%, assessed by Trypan blue dye exclusion.
For incubations, aliquots of hepatocyte suspension (250 μL containing a cell concentration of 2×10^6 cells/mL) were added to 250 μL of 2 μM substrate (test compound or positive control) in supplemented KHB in duplicate wells in a 24-well plate. […] Samples were injected and analyzed with methods described below. […]

Predicted Hepatocyte CL [2]	SMILES	CC50 [1]
41 mL/min/kg	Nc1nc2cnc(C(=O)N3CCOC[C@@H]3c3ccc(C(F)(F)F)cc3)cc2c2c1COC2 [AMG193, reference compound]	69 nM
42.2 mL/min/kg	Nc1nc2cnc(C(=O)N3CCC[C@@H]4Oc5cc(C(F)(F)F)cc(F)c5[C@@H]43)cc2c2c1COC2 [Example Ca-47, (4-amino-1,3-dihydrofuro[3,4-c][1,7]naphthyridin-8-yl)((4aS,9bS)-9-fluoro-7-(trifluoromethyl)-3,4,4a,9b-tetrahydrobenzofuro[3,2-b]pyridin-1(2H)-yl)methanone]	14 nM
